Experimental data as given in patent EP1484329A1, “Indole derivatives with apoptosis inducing activity” (Zentaris GmbH, priority 2003, dated 2004).
In brackets after ≈: the same amount, converted by molar mass. Counter-ions that a name gives are not always drawn. Like-named read-outs stand apart in the source and are kept apart here.

What was measured:
[1] = tested on: Rindertubulin; assay: Inhibition of tubulin polymerisation in vitro; type: biochemical, Rind; conditions: Tubulin with 30% MAPs, mean of two independent experiments
From the text: In diesem Test wird durch Zyklen von Polymerisation und Depolymerisation aufgereinigtes Tubulin eingesetzt, welches durch Zugabe von GTP und Erwärmung zur Polymerisation gebracht wird. […]

[2] = tested on: HT29; assay: XTT proliferation assay, HT29; type: cell-based, human; conditions: for EC50: Homo sapiens, HT-29, HT29, read-out: XTT Proliferationsassay, EC50 HT29
From the text: (§1) Die Substanzen 1,2, 4-6 wurden in einem Proliferationstest an etablierten Tumorzelllinien auf ihre anti-proliferative Aktivität hin untersucht (D.A. Scuderio et al. Cancer Res. 1988, 48, 4827-4833). Der verwendete Test bestimmt die zelluläre Dehydrogenase-Aktivität und ermöglicht eine Bestimmung der Zellvitalität und indirekt der Zellzahl. Bei den verwendeten Zelllinien handelt es sich um die humane Cervixkarzinom Zelllinie KB/HeLa (ATCC CCL17), die ovariale Adenokarzinomzelllinie SKOV-3 (ATCC HTB77), die humane Glioblastom Zelllinie SF-268 (NCI 503138) und die Lungenkarzinom Zelllinie NCI-H460 (NCI 503473). Des weiteren wurde zur Untersuchung der Zellzyklus-spezifischen Wirkung der Substanz ein RKOp27 Zellsystem verwendet (M. Schmidt et al. Oncogene19(20):2423-9, 2000). Bei RKO handelt es sich um eine humane Kolonkarzinomlinie, in der der Zellzyklusinhibitor p27 ^kip1 mittels des Ecdyson Expressionssystems induziert zur Expression gebracht und zu einem Zellzyklusarrest spezifisch in G2 geführt werden kann. Eine unspezifisch wirkende Substanz hemmt die Proliferation unabhängig davon, ob die RKO Zelle in G1 oder G2 arretiert ist oder nicht. Zellzyklus-spezifische Substanzen wie beispielsweise Tubulininhibitoren sind hingegen nur dann zytotoxisch, wenn Zellen nicht arretiert sind und der Zellzyklus durchlaufen wird. In Tabelle 1 ist die zytotoxische bzw. wachstumshemmende Aktivität der beschriebenen Verbindungen mit / ohne Expression von p27^kip1gezeigt. Die getesteten Verbindungen zeigten im induzierten Zustand von p27^kiP1 keine zytotoxische Aktivität. Die Ergebnisse zeigen eine sehr potente Hemmung der Proliferation ausgewählter Tumorzelllinien durch die genannten Substanzen. Tabelle 1:
(§2) Zur weiteren Charakterisierung wurden die Substanzen 1-6 an einem Panel von 7 humanen Tumorzelllinien auf ihre anti-proliferative Wirkung hin untersucht. Bei den untersuchten Zelllinien handelt es sich um die humanen Glioma Zelllinien A172 (ATCC CRL-1620) und U118 (ATCC HTB-15), die humane Lungenkarzinom Zelllinie A549, das humane epidermoide Karzinom A431 (ATCC CRL-2592), die humanen Prostatakarzinom Zelllinien DU145 (ATCC HTB-81) und PC3 (ATCC CRL-1435) und die humane Kolon Adenokarzinomzelllinie HT29 (ATCC HTB-38). Es handelt sich hierbei um sehr gut charakterisierte, etablierte Zelllinien, die von ATCC, ECACC bzw. NCI erhalten und in Kultur genommen wurden. Die in Tab. […]

[3] = tested on: SKOV-3; assay: XTT proliferation assay, SKOV-3; type: cell-based; conditions: Homo sapiens, SK-OV-3; read-out: XTT Proliferationsassay, EC50 SKOV3
From the text: as §1, with “Substanzen.” for “Substanzen. Tabelle 1:”

[4] = tested on: KB/HeLa; assay: XTT proliferation assay, KB/HeLa; type: cell-based; conditions: Homo sapiens, read-out: XTT Proliferationsassay, EC50 KB/Hela
From the text: as §1, with “Substanzen.” for “Substanzen. Tabelle 1:”

[5] = tested on: P388ADR; assay: XTT proliferation assay, P388ADR (doxorubicin-resistant); type: cell-based, murine; conditions: Mus musculus, P388/ADR; read-out: XTT Proliferationsassay, EC50 P388ADR
From the text: as §1
(§3) Zur weiteren Charakterisierung wurden die Substanzen 1,2,4-6 gegenüber multi drug resistenten Zelllinien im Vergleich zu den nicht-resistenten Wildtypzelllinien untersucht.
(§4) Bei den untersuchten Zelllinien handelt es sich um die murine L1210, die akute myeloische Leukaemie Zelllinie LT12 und um die resistenten Linien L1210/mdr und LT12/mdr. Außerdem wurden die murine P388 Zelllinie (methyl-cholanthreneinduced lymphoid neoplasm) sowie die Doxorubicin-resistente P388 als Testsysteme herangezogen.

[6] = tested on: PC3; assay: XTT proliferation assay, PC3; type: cell-based, human; conditions: for EC50: Homo sapiens, PC-3, PC3, read-out: XTT Proliferationsassay, EC50 PC3
From the text: as §1, §2

[7] = tested on: DU145; assay: XTT proliferation assay, DU145; type: cell-based, human; conditions: for EC50: Homo sapiens, DU-145, DU145, read-out: XTT Proliferationsassay, EC50 DU145
From the text: as §1, §2

[8] = tested on: L1210VCR; assay: XTT proliferation assay, L1210VCR (resistant); type: cell-based, murine; conditions: Mus musculus; read-out: XTT Proliferationsassay, EC50 L1210VCR
From the text: as §1, §3, §4

[9] = tested on: LT12mdr; assay: XTT proliferation assay, LT12mdr (resistant); type: cell-based; conditions: read-out: XTT Proliferationsassay, EC50 LT12mdr
From the text: as §1, §3, §4

[10] = tested on: U118MG; assay: XTT proliferation assay, U118MG; type: cell-based; conditions: Homo sapiens, U-118-MG; read-out: XTT Proliferationsassay, EC50 U118MG
From the text: as §1, §2

[11] = tested on: SF-268; assay: XTT proliferation assay, SF-268; type: cell-based; conditions: Homo sapiens, read-out: XTT Proliferationsassay, EC50 SF-268
From the text: as §1, with “Substanzen.” for “Substanzen. Tabelle 1:”

[12] = tested on: NCI-H460; assay: XTT proliferation assay, NCI-H460; type: cell-based; conditions: Homo sapiens, read-out: XTT Proliferationsassay, EC50 NCI-H460
From the text: as §1, with “Substanzen.” for “Substanzen. Tabelle 1:”

[13] = tested on: A549; assay: XTT proliferation assay, A549; type: cell-based, human; conditions: for EC50: Homo sapiens, A549, A549, read-out: XTT Proliferationsassay, EC50 A549
From the text: as §1, §2

[14] = tested on: LT12; assay: XTT proliferation assay, LT12 (wild type); type: cell-based; conditions: Rattus norvegicus, LT12; read-out: XTT Proliferationsassay, EC50 LT12
From the text: as §1, §3, §4

[15] = tested on: P388; assay: XTT proliferation assay, P388 (wild type); type: cell-based, murine; conditions: Mus musculus, P388; read-out: XTT Proliferationsassay, EC50 P388
From the text: as §1, §3, §4

[16] = tested on: L1210; assay: XTT proliferation assay, L1210 (wild type); type: cell-based, murine; conditions: Mus musculus, L1210; read-out: XTT Proliferationsassay, EC50 L1210
From the text: as §1, §3, §4

[17] = tested on: A172; assay: XTT proliferation assay, A172; type: cell-based, human; conditions: for EC50: Homo sapiens, A 172, A172, read-out: XTT Proliferationsassay, EC50 A172
From the text: as §1, §2

[18] = tested on: RKOp27; assay: XTT proliferation assay, RKOp27 cell system with / without induced p27kip1 expression; type: cell-based; conditions: Homo sapiens
From the text: as §1, with “Substanzen.” for “Substanzen. Tabelle 1:”

[19] = tested on: A431; assay: XTT proliferation assay, A431; type: cell-based, human; conditions: for EC50: Homo sapiens, A-431, A431, read-out: XTT Proliferationsassay, EC50 A431
From the text: as §1, §2

[20] = RKOP27, without expression of p27kip1, read-out: XTT Proliferationsassay, EC50 RKOP27
[21] = RKOP27 ind., p27kip1 expression induced (cells arrested), read-out: XTT Proliferationsassay, EC50 RKOP27 ind.

## CC[C@]1(O)C[C@H]2CN(CCc3c([nH]c4ccccc34)[C@@](C(=O)OC)(c3cc4c(cc3OC)N(C=O)[C@H]3[C@@](O)(C(=O)OC)[C@H](OC(C)=O)[C@]5(CC)C=CCN6CC[C@]43[C@@H]65)C2)C1 [vincristine, reference compound]
[1]
  Hemmung der Tubulin-Polymerisation, EC50: 0.35 µg/mL

## O=C(Nc1ccc2[nH]ncc2c1)C(=O)c1cn(Cc2ccc(Cl)cc2)c2ccccc12 [Verbindung 6, 2-[1-(4-Chlor-benzyl)-1H-indol-3-yl]-N-(1H-indazol-5-yl)-2-oxo-acetamid]
[2]
  EC50: 0.059 µg/mL (≈ 0.138 µM)
[3]
  EC50: 0.144 µg/mL (≈ 0.336 µM)
[4]
  EC50: 0.335 µg/mL (≈ 0.781 µM)
[5]
  EC50: 0.231 µg/mL (≈ 0.539 µM)
[6]
  EC50: 0.093 µg/mL (≈ 0.217 µM)
[7]
  EC50: 0.506 µg/mL (≈ 1.18 µM)
[8]
  EC50: 0.241 µg/mL (≈ 0.562 µM)
[9]
  EC50: 0.093 µg/mL (≈ 0.217 µM)
[10]
  EC50: 0.097 µg/mL (≈ 0.226 µM)
[11]
  EC50: > 3.16 µg/mL
[12]
  EC50: 0.233 µg/mL (≈ 0.543 µM)
[13]
  EC50: 0.323 µg/mL (≈ 0.753 µM)
[14]
  EC50: 0.084 µg/mL (≈ 0.196 µM)
[1]
  Hemmung der Tubulin-Polymerisation, EC50: 1.26 µg/mL
[15]
  EC50: 0.175 µg/mL (≈ 0.408 µM)
[16]
  EC50: 0.246 µg/mL (≈ 0.574 µM)
[17]
  EC50: 0.342 µg/mL (≈ 0.797 µM)
[18]; [20]
  EC50: 0.148 µg/mL (≈ 0.345 µM)
[18]; [21]
  EC50: > 3.16 µg/mL
[19]
  EC50: 0.07 µg/mL (≈ 0.163 µM)

## O=C1c2c(O)ccc(O)c2C(=O)c2c(NCCNCCO)ccc(NCCNCCO)c21 [mitoxantron, reference compound]
[5]
  EC50: 0.608 µg/mL (≈ 1.37 µM)

## Cc1ccc2cc(NC(=O)C(=O)c3cn(Cc4ccc(Cl)cc4)c4ccccc34)ccc2n1 [Verbindung 3, 6-{2-[1-(4-Chlor-benzyl)-1 H-indol-3-yl]-2-oxo-acetylamino}-2-methyl-chinolin Hydrochlorid, reference compound]
[2]; HT29, listed as 3 (V)
  XTT Proliferationsassay, EC50 HT29: 0.219 µg/mL
[6]; PC3, listed as 3 (V)
  XTT Proliferationsassay, EC50 PC3: 0.165 µg/mL
[7]; DU145, listed as 3 (V)
  XTT Proliferationsassay, EC50 DU145: 0.426 µg/mL
[10]
  EC50: 0.142 µg/mL
[13]; A549, listed as 3 (V)
  XTT Proliferationsassay, EC50 A549: 0.405 µg/mL
[17]; A172, listed as 3 (V)
  XTT Proliferationsassay, EC50 A172: 0.171 µg/mL
[19]; A431, listed as 3 (V)
  XTT Proliferationsassay, EC50 A431: 0.075 µg/mL

## Cc1ccc2cc(NC(=O)C(=O)c3cn(Cc4ccc(Cl)cc4)c4ccccc34)ccc2n1 [Verbindung 1, 2-[1-(4-Chlor-benzyl)-1 H-indol-3-yl]-N-(2-methyl-chinolin-6-yl)-2-oxo-acetamid, reference compound]
[2]
  EC50: 0.266 µg/mL (≈ 0.586 µM)
[3]
  EC50: 0.174 µg/mL (≈ 0.383 µM)
[4]
  EC50: 0.183 µg/mL (≈ 0.403 µM)
[5]
  EC50: 0.212 µg/mL (≈ 0.467 µM)
[6]
  EC50: 0.199 µg/mL (≈ 0.438 µM)
[7]
  EC50: 0.329 µg/mL (≈ 0.725 µM)
[8]
  EC50: 0.304 µg/mL (≈ 0.67 µM)
[9]
  EC50: 0.218 µg/mL (≈ 0.48 µM)
[11]
  EC50: 0.261 µg/mL (≈ 0.575 µM)
[12]
  EC50: 0.344 µg/mL (≈ 0.758 µM)
[13]
  EC50: 0.304 µg/mL (≈ 0.67 µM)
[14]
  EC50: 0.133 µg/mL (≈ 0.293 µM)
[1]; listed as 1 (V)
  Hemmung der Tubulin-Polymerisation, EC50: 1.16 µg/mL
[15]
  EC50: 0.13 µg/mL (≈ 0.286 µM)
[16]
  EC50: 0.233 µg/mL (≈ 0.513 µM)
[17]
  EC50: 0.165 µg/mL (≈ 0.363 µM)
[18]; [20]
  EC50: 0.23 µg/mL (≈ 0.507 µM)
[18]; [21]
  EC50: > 3.16 µg/mL
[19]
  EC50: 0.076 µg/mL (≈ 0.167 µM)
